Data on 8 compounds can be found in patent US8293231B2, “Methods and compositions for treating ischemia” (Blue Blood Biotech Corp., priority 2005, dated 2012).

The test system of experiment [1] is MMP-1, MMP-2, MMP-3, and MMP-9 in HUVEC conditioned medium. The experiment can be described thus: Gelatin and casein zymographies. Format: cell-based, human. As to conditions: 10 mM EDTA in incubation buffer. The protocol:
(§1) HUVECs were seeded at 80% confluence on 100-mm dishes in M199 medium. After 24 h, cells were rinsed with serum-free M199 twice and incubated in serum-free M199 with various concentrations of TMD23, VEGF (10 ng/mL), or PMA (70 ng/mL) for 12 h. The conditioned medium containing […] secreted proteins was analyzed by gelatin- and casein-based zymographies. The digested area appeared clear on a blue background, indicating the location of matrix metalloproteinase (MMP) activity. To further verify MMP caseinolytic activity, the casein-containing gel was incubated with incubation buffer containing 10 mM EDTA, an inhibitor of MMPs, to observe disappearance of the clear band. Plasminogen activator inhibitor (PAI) activity was measured by titrating samples with increasing amounts of tissue-type plasminogen activator (t-PA) (Boehringer Ingelheim) into a fixed volume of endothelial-cell-conditioned media.
as §1, with “zymographies. Lee O H, et al., Identification of angiogenic properties of insulin-like growth factor II in in vitro angiogenesis models. Brit J. Cancer. 2000; 82:385-391.” for “zymographies.”, “media. Shi G Y., et al., Plasmin and the regulation of tissue-type plasminogen activator biosynthesis in human endothelial cells. […]” for “media.”

Experiment [2] relates to HUVECs. The experiment can be described thus: In vitro Matrigel angiogenesis assay (tube formation). Format: cell-based, human. As to conditions: for Effect on the stimulatory effect of TMD23 on HUVEC tube formation: IgG 10 μg/mL, inhibitors 10 μM. The protocol: (§2) Growth-factor-reduced Matrigel (BD Biosciences) was thawed at 4° C. A total of 200 μL Matrigel was added to wells of a 48-well plate and polymerized 30 min at 37° C. Two hundred μL cell suspension containing various concentrations of VEGF, TMD23, or TMD23 in the presence of polyclonal rabbit anti-TMD23 antibody (10 μg/mL) or various signaling pathway inhibitors were plated onto Matrigel-coated wells at a density of 2.4×10^4 cells/well in M199 containing 10% FBS for 24 h at 37° C. in a 5% CO2 humidified atmosphere. Each concentration was tested in triplicate in the same plate, with wells photographed using a Leica camera (40× magnification). Tube length was quantified by measuring tubes in five randomly chosen fields from each well using MetaMorph software. Experiments were repeated at least three times.
as §2, with “5° k” for “5%”

Experiment [3] relates to PAI activity in conditioned media of HUVECs. The experiment can be described thus: Plasminogen activator inhibitor (PAI) activity assay. Type of experiment: cell-based, human. As to conditions: 12 h; 100 or 1000 ng/mL TMD23, 70 ng/mL PMA, 10 ng/mL VEGF. The protocol: as §1
as §1, with “zymographies. Lee O H, et al., Identification of angiogenic properties of insulin-like growth factor II in in vitro angiogenesis models. Brit J. Cancer. 2000; 82:385-391.” for “zymographies.”, “media. Shi G Y., et al., Plasmin and the regulation of tissue-type plasminogen activator biosynthesis in human endothelial cells. […]” for “media.”

Experiment [4] concerns HUVECs. Put plainly: Chemotaxis assay (Transwell). Type of experiment: cell-based, human. As to conditions: inhibitor or antibody present with TMD23. How it is done: (§3) The chemotactic motility of HUVECs was assayed using Transwell (Costar) with 6.5-mm diameter polycarbonate filters (8-μm pore size). The lower filter surface was coated with 10 μg gelatin (Sigma-Aldrich). Various concentrations of TMD23 in the absence or presence of 10 μg/mL polyclonal rabbit anti-TMD23 antibody or 10 ng/mL vascular endothelial growth factor (VEGF) (R & D Systems, Inc.) in M199 were placed in the lower wells. One hundred mL cell suspension containing 1×10^5 cells was loaded into each of upper well. The chamber was incubated at 37° C. for 4 h. Cells were fixed with methanol and stained with 4′,6′-diamidino-2-phenylindole (DAPI). Chemotaxis was quantified with optical microscopy (Leica) at 100× magnification using MetaMorph imaging software (Universal Imaging Corporation) by counting the cells that migrated to the filter's lower side. Five random fields in each well were counted. Each sample was assayed in triplicate, and assays were repeated three times. To determine the role of extracellular signal-regulated kinase 1/2 (ERK1/2), p38 mitogen-activated protein kinase (MAPK), and phosphatidylinositol 3-kinase (PI3 kinase)-protein kinase B/Akt (Akt) in TMD23-mediated cell migration, assays were performed in the presence of U0126, a MAPK/ERK kinase (MEK) inhibitor, SB 203580, a p38 MAPK inhibitor, and LY 294002, a PI3 kinase inhibitor. Cell viability as determined by trypan blue staining was not altered by treatment. 00126 was purchased from Promega, with SB 203580 and LY 294002 from Calbiochem.
as §3, with “hundred μL” for “hundred mL”, “MAPK/ERK kinase-(MEK)” for “MAPK/ERK kinase (MEK)”, “treatment. U0126” for “treatment. 00126”

Experiment [5] has as its system human umbilical vein endothelial cells (HUVECs). Put plainly: Cell proliferation assay (BrdU incorporation). Format: cell-based. Conditions: BrdU incorporation, FIG. 2A. The protocol: To evaluate the effect of TMD proteins on DNA synthesis in human umbilical vein endothelial cells (HUVECs), we performed a 5-bromo-2′-deoxyuridine (BrdU) incorporation assay with a commercial quantification kit (Roche Diagnostic GmbH) and manufacturer's protocol. Mitogenic effects induced by TMD proteins were also determined in the presence of polyclonal rabbit anti-TMD23 antibody (prepared by GlycoNex, Inc., Taiwan) that was purified by protein G-Sepharose column (Amersham Pharmacia Biotech AB).
To evaluate the effect of TMD proteins on DNA synthesis in human umbilical vein endothelial cells (HUVECs), a 5-bromo-2′-deoxyuridine (BrdU) incorporation assay were performed with a commercial quantification kit (Roche Diagnostic GmbH) and manufacturer's protocol. Mitogenic effects induced by TMD proteins were also determined in the presence of polyclonal rabbit anti-TMD23 antibody (prepared by GlycoNex, Inc., Taiwan) that was purified by protein G-Sepharose column (Amersham Pharmacia Biotech AB).
Background: Incorporation of labelled thymidine or its analogues reports DNA synthesis.

Experiment [6] deals with Matrigel plugs in FVB mice. Put plainly: Murine angiogenesis assay (Matrigel plug). Format: in vivo.
Experiment [7] concerns human melanoma A2058 cells in Matrigel. Put plainly: Effect of TMD23 on tumor neoangiogenesis. Format: in vivo, athymic nude mice. As to conditions: 18 days. The protocol: To assess TMD23 effects on tumor neoangiogenesis, 1×10^6 human melanoma A2058 cells (ATCC® CRL-11147) were mixed with Matrigel (0.5 mL) containing heparin (60 U/mL) and various concentrations of TMD23 and subcutaneously injected into athymic nude mice. Matrigel plugs were harvested after 18 days and frozen in liquid nitrogen. Blood vessels were detected by immunohistochemistry using anti-CD31 antibody as described above. Microvessel density (MVD) was calculated by counting six highly vascularized fields in each section (200× magnification; MetaMorph software).

Experiment [8] relates to Matrigel plugs in FVB mice. The experiment can be described thus: Murine angiogenesis assay (Matrigel plug). Format: in vivo. Conditions: for Appearance of Matrigel plugs, with heparin: day 4, plus heparin (30 U), TMD23 10, 100, or 1,000 ng, bFGF 250 ng, VEGF 50 ng; for Magnitude of angiogenic reaction with heparin versus without: gels supplemented with both angiogenic factor and heparin. The protocol: To assess angiogenic effects in vivo, growth-factor-reduced liquid Matrigel (0.5 mL) containing heparin (60 U/mL) and various concentrations of TMD23, bFGF or VEGF was subcutaneously injected into FVB mice near the abdominal midline. Matrigel with PBS plus heparin served as the negative control, with bFGF and VEGF plus heparin as the positive control. Four days after injection, mice were sacrificed and Matrigel plugs were surgically removed. For macroscopic analysis of angiogenesis, hemoglobin content in Matrigel was measured using Drabkin reagent 525 (Sigma-Aldrich). For histological analysis, rat anti-mouse CD31 (PECAM-1, platelet endothelial cell adhesion molecule-1) antibody (Pharmingen) was used. The same specimens were used for hematoxylin and eosin (H&E) staining.

On to `O=C(O)CN(CCN(CC(=O)O)CC(=O)O)CC(=O)O` [EDTA, reference compound], for which the “Effect on the caseinolytic MMP-3 band” value in experiment [1] was “blocked specifically”.
For `COC(=O)[C@@H](N)CCCNC(=N)N[N+](=O)[O-]` [L-NAME, N^G-nitro-L-arginine methyl ester], the “Effect on the stimulatory effect of TMD23 on HUVEC tube formation” value (shortened to “Effect … on HUVEC tube formation”) with HUVECs [2] is given as “blocked”.
As to `CCCCCCCCCCCCCC(=O)O[C@@H]1[C@@H](C)[C@@]2(O)[C@@H](C=C(CO)C[C@]3(O)C(=O)C(C)=C[C@@H]23)[C@@H]2C(C)(C)[C@]12OC(C)=O` [PMA], the “PAI activity in conditioned media of HUVECs” value in experiment [3] is “decreased significantly”.
With `C[S+]([O-])c1ccc(-c2nc(-c3ccncc3)c(-c3ccc(F)cc3)[nH]2)cc1` (stereo not shown) [SB 203580, reference compound], the “Effect … on HUVEC tube formation” value with HUVECs [2] is reported as “blocked”. Besides, in the experiment on HUVECs [4], the “Effect on the stimulatory effect of TMD23 on HUVEC migration” value is “blocked”.
As for `N#CC(=C(/N)Sc1ccccc1N)/C(C#N)=C(\N)Sc1ccccc1N` [U0126, reference compound], the “Effect … on HUVEC tube formation” value in the experiment with HUVECs [2] is recorded as “blocked”. Moreover, the “Effect on the stimulatory effect of TMD23 on HUVEC migration” value in the experiment with HUVECs [4] is “blocked”.
As for “TMD2: Recombinant human thrombomodulin fragment, amino acids Ala242-Cys480 of SEQ ID NO: 2, containing six EGF-like structures (D2)”, the “DNA synthesis in HUVECs” value in experiment [5] is listed as “stimulated DNA synthesis”.
As to “basic fibroblast growth factor [bFGF, reference compound]”, the “Appearance of Matrigel plugs, without heparin” value in experiment [6] is “pale”. For the same compound, the “Blood vessels in Matrigel plugs (CD31 staining)” value in experiment [7] was “significantly more blood vessels”. For the same compound, the “Tumor size developed by Matrigel plugs containing A2058 cells” value in experiment [7] (compared with A2058 cells alone) is on record as “bigger”. Further, in experiment [8], the “Appearance of Matrigel plugs, with heparin” value is “bright red” and the “Magnitude of angiogenic reaction with heparin versus without” value is on record as “considerably greater”.
Regarding “vascular endothelial growth factor [VEGF, reference compound]”, in experiment [6], the “Appearance of Matrigel plugs, without heparin” value is reported as “pale”. Moreover, the “HUVEC tube formation on Matrigel” value with HUVECs [2] (24 h, VEGF 10 ng/mL, TMD23 5 to 250 ng/mL) is given as “formed elongated capillary-like structures, with complete networks”. Besides, the “PAI activity in conditioned media of HUVECs” value in experiment [3] is on record as “decreased significantly”. For the same compound, in experiment [8], the “Appearance of Matrigel plugs, with heparin” value is listed as “bright red” and the “Magnitude of angiogenic reaction with heparin versus without” value is “considerably greater”. Further, in experiment [8] (plus heparin, compared with controls), the “Hemoglobin content of recovered Matrigel plugs” value is on record as “significantly increased”.
